In patent publication US20210052679A1, “PROBIOTIC DELIVERY OF GUIDED ANTIMICROBIAL PEPTIDES” (priority 2019, published 2021):

Tests used:
[1] = test system: Staphylococcus aureus and Staphylococcus epidermidis; assay: In vitro bactericidal activity assay, targeted staphylococci; assay type: cell-based; details: S. aureus and S. epidermidis
Description: The Ulp-1 protease-cleaved proteins were tested for antimicrobial assays against four strains of bacteria: Staphylococcus aureus, Staphylococcus epidermidis, Enterococcus faecalis and Bacillus subtilis. These four species were selected because they are gram positive and the AMPs plectasin and eurocin are specifically active against gram positive bacteria (Mygind et al. 2005, Oeemig et al. 2012). The component controls were free SUMO protein and synthetically produced A12C peptide. Vancomycin was used as the positive control. The standard protocol for a microtiter plate assay with serial dilution was used in which serial 2-fold dilutions of test peptide were made across a 96-well plate containing uniform bacterial inoculum across the peptide dilutions. After bacterial growth in the presence of peptide, cell viability was assayed with resazurin. Experiments with all peptides against all bacterial species were performed with >5 replicates each.

[2] = test system: H. pylori; assay: Therapeutic control of H. pylori in mice (qPCR of stomach fluid); assay type: in vivo, mouse; details: at Day 10, within each AMP/gAMP pair
From the text: These mice were inoculated with H. pylori and the H. pylori was allowed to establish itself in the mouse stomach for 3 days, with daily inoculations to ensure establishment. The mice were then given L. lactis secreting AMP or gAMP to therapeutically treat the H. pylori infection. Stomach samples were collected on Day 0 before H. pylori inoculation; resuspended H. pylori were fed by oral gavage once daily for 3 consecutive days; stomach samples were then collected on Day 5 to test for H. pylori presence and on Day 5 resuspended L. lactis were fed to the mice; subsequent stomach samples were collected on Day 8 and 10.
(§1) The L. lactis cultures were propagated overnight as described above. The overnight cultures were spun down at 4000 g for 15 min at 4° C. The pellets were resuspended in sterile PBS. H. pylori stocks were grown overnight on Blood-TS agar as described above and then scraped by a sterile loop and resuspended in sterile PBS. The either bacterial suspension were fed to the mice using 1.5 ga oral gavage needle not exceeding half their stomach volume (˜250 μL). The colony forming units (CFUs) of the resuspension being fed were determined by diluting the resuspension 1/1000 and 1/10000 times and plating on appropriate plates. Pre- and post-inoculation samples from the mouse stomach were collected by flushing their stomach with excess PBS (˜300 μL) and the stomach fluid was collected by reversing the oral gavage injection until the vacuum was maintained.
(§2) The supernatants were collected and plated in a 96-well plate and qPCR was performed with primers for the VacA gene to quantify for H. pylori and primers for the acma gene to quantify for L. lactis. Standard curves for each bacterium against their CT values were constructed by including different dilutions of the overnight cultures of the respective bacteria (1/10, 1/100, 1/1000, 1/10000) in the qPCR and plating those dilutions on respective plates to determine the corresponding CFU values. Each data point represents at least 3 replicate mice.
This was used to generate CFU/μl data from qPCR CT values in FIG. 14.

[3] = test system: H. pylori; assay: Prophylactic control of H. pylori in mice (qPCR of stomach fluid); assay type: in vivo, mouse; details: Day 12; probiotic pre-treatment before H. pylori challenge; FIG. 15
Description: as §1
as §2, with “mice. […]” for “mice.”

[4] = test system: H. pylori; assay: L. lactis/H. pylori co-culture and qPCR on VacA gene; assay type: cell-based, Helicobacter pylori; details: 24 h co-culture with L. lactis expressing AMP/gAMP; FIG. 10
Description: In the co-cultures, different dilutions of L. lactis were used but each well had 10 μl of H. pylori culture (˜3000 CFUs). The L. lactis secreted AMP, gAMP or contained an empty expression vector. Alyteserin and CRAMP were the AMPs tested. These were constructed either genetically fused to the multimerin-derived guide peptide (guide AMP or gAMP) or not (AMP). The amount of H. pylori present in the co-culture at any given time point was measured by qPCR, using primers specific for the VacA gene itself, which codes for the receptor protein to which the gAMP binds. The entire experiment was run in triplicate and the growth of H. pylori after 24 h in the presence of L. lactis expressing various AMPs or gAMPs is shown in FIG. 10.
L. lactis AMP/gAMP clones were propagated from glycerol stocks and grown in GM17 broth overnight with erythromycin (5 μg/ml) with no shaking. H. pylori stocks were first propagated on Blood-TS agar overnight with microaerobic condition and >5% CO2 environment. Then colonies from the plate were transferred to a TS broth with newborn calf serum (5%) and grown overnight under microaerobic condition and >5% CO2 environment. The L. lactis cultures were serially diluted in a 96-well culture plate with TSB broth to make up a volume of 100 μL. To each well, 10 μL of the overnight H. pylori culture was added and each well volume was brought up to 200 μL with more TS broth. The plate was left to grow overnight in a microaerobic environment with >5% CO2. After 24 h, well contents from the culture plate were transferred to a 96-well PCR plate. […] The qPCR was done using primers for VacA gene to quantify H. pylori (forward: 5′-[…]-3′ (SEQ ID NO:12), reverse: 5′-[…]-3′ (SEQ ID NO:13) and primers for acma gene for quantifying L. lactis. Standard curves for H. pylori and L. lactis were constructed by determining CT values for different dilutions of the overnight cultures of the respective bacteria (1/10, 1/100, 1/1000, 1/10000) in the qPCR plates, the CFUs for the dilutions were determined by plating on their respective agar plates.

[5] = test system: E. coli; assay: E. coli viability with supernatants of Lactococcus lactis broth cultures; assay type: cell-based, Escherichia coli; details: L. lactis culture supernatant, 4 hours of exposure; FIG. 8
From the text: This is reported in FIG. 8 as the survival of E. coli in the presence of broth culture of Lactococcus lactis secreting antimicrobial peptide with or without a guide peptide. […] It should be noted that the legend is in reverse order of the lines, top to bottom, with the upper line in the graph being the buffer control and the lower line being vancomycin. To obtain the results shown in FIG. 8, cultures of Lactococcus lactis containing either the empty pT1bin1 vector, pT1bin1 harboring the antimicrobial peptide laterosporulin, or pT1bin1 harboring laterosporulin genetically fused to the guide peptide from multimerin were centrifuged to remove bacterial cells and the resulting supernatants were added to separate starter cultures of E. coli to check for inhibition of E. coli growth. The starter culture used supplying all replicates consisted of 500 μl of overnight culture of E. coli diluted in 50 ml of LB broth. […] E. coli viability was measured by plating onto LB agar plates the cultures in each well after 4 hours of exposure to supernatant or antibiotic. The resulting colonies appearing on the plates were recorded, with the undiluted buffer control treatment being set to 100% and all other treatments being converted to a fraction of this value, as plotted on the y-axis.

[6] = test system: Lactobacillus plantarum; assay: Off-target co-culture with L. lactis, qPCR; assay type: cell-based; details: 24 hours; probiotic at 100,000/μl CFU level; FIG. 11
Description: L. lactis AMP/gAMP clones were propagated from glycerol stocks and grown in GM17 broth overnight with erythromycin (5 μg/ml) with no shaking. H. pylori stocks were first propagated on Blood-TS agar overnight with microaerobic condition and >5% CO2 environment. Then colonies from the plate were transferred to a TS broth with newborn calf serum (5%) and grown overnight under microaerobic condition and >5% CO2 environment. The L. lactis cultures were serially diluted in a 96-well culture plate with TSB broth to make up a volume of 100 μL. To each well, 10 μL of the overnight H. pylori culture was added and each well volume was brought up to 200 μL with more TS broth. The plate was left to grow overnight in a microaerobic environment with >5% CO2. After 24 h, well contents from the culture plate were transferred to a 96-well PCR plate. That PCR plate was sealed and heated for 15 min at 100° C. and chilled at 4° C. for 5 min. Then the plate was centrifuged at 2000 g for 2 min and the supernatant was used as the template for qPCR. The qPCR was done using primers for VacA gene to quantify H. pylori (forward: 5′-[…]-3′ (SEQ ID NO:12), reverse: 5′-[…]-3′ (SEQ ID NO:13) and primers for acma gene for quantifying L. lactis. Standard curves for H. pylori and L. lactis were constructed by determining CT values for different dilutions of the overnight cultures of the respective bacteria (1/10, 1/100, 1/1000, 1/10000) in the qPCR plates, the CFUs for the dilutions were determined by plating on their respective agar plates.
The experimental design was identical to that described above in Example 3, with the exception of the off-target bacterium replacing the targeted H. pylori. The off-target bacteria used were Lactobacillus plantarum (gram positive) and Escherichia coli (gram negative).

Row | Molecule | more H. pylori with the AMP versus the gAMP [2] | H. pylori in co-culture (qPCR on VacA gene) [4] | Lactobacillus plantarum level after co-culture [6] | other results
1 | A12C-plectasin | – | – | – | toxicity/activity against targeted staphylococci [1]: highly active
2 | Alyteserin (GLKDIFKAGLGSLVKGIAAHVAN; alyteserin AMP) | 15 fold | not very effective unless fused to the guide peptide | – | H. pylori in mouse stomach fluid [3]: 2000 CFU/μl
3 | CRAMP (ISRLAGLLRKGGEKIGEKLKKIGQKIKNFFQKLVPQPE; cathelin-related anti-microbial peptide (CRAMP)) | 15 fold | equally toxic | – | –
4 | Laterosporulin (ACQCPDAISGWTHTDYQCHGLENKMYRHVYAICMNGTQVYCRTEWGSSC; laterosporulin AMP) | 2.5 fold | – | – | viability of E. coli vs empty vector baseline [5]: significant decrease in viability
5 | MM1-Alyteserin (MQKMTDQVNYQAMKLTLLQKSGGGSGLKDIFKAGLGSLVKGIAAHVAN; MM1-alyteserin gAMP) | – | – | 10,000 CFU/μl | H. pylori in mouse stomach fluid [3]: 1500 CFU/μl
6 | MM1-Laterosporulin (protein, MM1-laterosporulin gAMP) MQKMTDQVNYQAMKLTLLQKSGGGSACQCPDAISGWTHTDYQCHGLENKMYRHVYAICMNGTQVYCRTEWGSSC | – | – | 10,000 CFU/μl | viability of E. coli vs empty vector baseline [5]: no significant difference
7 | MM1-CRAMP (protein, MM1-CRAMP gAMP) MQKMTDQVNYQAMKLTLLQKSGGGSISRLAGLLRKGGEKIGEKLKKIGQKIKNFFQKLVPQPE | – | equally toxic | 2500 CFU/μl | –
